Results from patent US20100004267A1, “LIQUID PREPARATION” (ASUBIO PHARMA CO., LTD., priority 2006, published 2010).

Experiment: Reduction in surface activity in SUN N8075 aqueous solution (Test example 7)
Format: physicochemical
Parameters: key to Appearance after shaking / Appearance after standing: A: Clear; B+: Almost clear; B: Much less insoluble matters than Control; Clearly less insoluble matter than Control; D: Comparable amount of insoluble matters with Control; E: More insoluble matters than Control; key to General judgment: A: Great effect; B+: Large effect; B: Effective; C: Effective but very small; D: Comparable to Control (No effect); E: Inferior to Control (clouded); key to Foaming property: A: Much less foaming than Control; B: Clearly less foaming than Control; Slightly less foaming than Control; D: Comparable to Control; E: More foaming than Control
Procedure: Into each test compound solution which was prepared in advance to achieve each adding concentration shown in the Table, SUN N8075 was added and dissolved so that the concentration thereof was 5 mg/mL, and the pH value was adjusted to 3 to 4 as appropriate by hydrochloric acid to prepare a sample solution.
Each 10 mL of sample solution was put into a 10-mL stoppered test tube, and shaken 30 strokes vertically by hand and allowed to stand upright, and under room diffused light, appearance of sample solution after shaking, foaming property (foaming quantity), defoaming time, post standing observation (after standing for 3 days or more) were evaluated.
As a control, an aqueous solution containing no test substance but containing 5 mg/mL of SUN N8075 was examined in a similar manner.

[1] = Control: 5 mg/mL SUN N8075 aqueous solution, no test substance

Cc1cc(OC[C@@H](O)CN2CCN(c3ccc(Cc4ccc(F)cc4)cc3)CC2)c(C)c(C)c1N [SUN N8075, (2S)-1-(4-amino-2,3,5-trimethylphenoxy)-3-{4-[4-(4-fluorobenzyl)phenyl]-1-piperazinyl}-2-propanol dimethane sulfonate]
Appearance after shaking (Captisol 10.00%): A | Appearance after standing (Captisol 10.00%): A | Defoaming time (Captisol 10.00%): A (In 20 minutes) | Foaming property (Captisol 10.00%): A | General judgment (Captisol 10.00%): A | Appearance after shaking (Chlorobutanol 0.10%): D | Appearance after standing (Chlorobutanol 0.10%): D | Foaming property (Chlorobutanol 0.10%): C | General judgment (Chlorobutanol 0.10%): D | Appearance after shaking (Chlorobutanol 0.50%): B | Appearance after standing (Chlorobutanol 0.50%): A | Foaming property (Chlorobutanol 0.50%): B | General judgment (Chlorobutanol 0.50%): B+ | Appearance after shaking (Chlorobutanol […]): C | Appearance after standing (Chlorobutanol […]): A | Foaming property (Chlorobutanol […]): C | General judgment (Chlorobutanol […]): B | Appearance after shaking/Appearance after standing [1]: Large amount of insoluble matters in wall face and appearance in Control | Foaming property [1]: Very high foaming property in Control | Defoaming time (Control: 5 mg/mL SUN N8075 aqueous solution, no test substance, standing): Not defoamed after standing for 1 week in Control | Appearance after shaking (Ethanol 1.00%): B | Appearance after standing (Ethanol 1.00%): B | Foaming property (Ethanol 1.00%): C | General judgment (Ethanol 1.00%): B | Appearance after shaking (Ethanol 5.00%): D | Appearance after standing (Ethanol 5.00%): E | Foaming property (Ethanol 5.00%): D | General judgment (Ethanol 5.00%): D | Appearance after shaking (Ethanol 10.00%): D | Appearance after standing (Ethanol 10.00%): E | Foaming property (Ethanol 10.00%): D | General judgment (Ethanol 10.00%): D | Appearance after shaking (Ethanol […]): B | Appearance after standing (Ethanol […]): C | Foaming property (Ethanol […]): D | General judgment (Ethanol […]): C | Appearance after shaking (Glycine 100 mM): B | Appearance after standing (Glycine 100 mM): B | Foaming property (Glycine 100 mM): B | General judgment (Glycine 100 mM): B | Appearance after shaking (L-Arginine 30 mM): B+ | Appearance after standing (L-Arginine 30 mM): B+ | Defoaming time (L-Arginine 30 mM): B (In 60 minutes) | Foaming property (L-Arginine 30 mM): B | General judgment (L-Arginine 30 mM): B+ | Appearance after shaking (L-Arginine 60 mM): A | Appearance after standing (L-Arginine 60 mM): A | Defoaming time (L-Arginine 60 mM): A (In 20 minutes) | Foaming property (L-Arginine 60 mM): A | General judgment (L-Arginine 60 mM): A | Appearance after shaking (L-Histidine 60 mM): A | Appearance after standing (L-Histidine 60 mM): A | Defoaming time (L-Histidine 60 mM): A (In 20 minutes) | Foaming property (L-Histidine 60 mM): A | General judgment (L-Histidine 60 mM): A | Appearance after shaking (Meglumine 25 mM): C | Appearance after standing (Meglumine 25 mM): C | Foaming property (Meglumine 25 mM): D | General judgment (Meglumine 25 mM): C | Appearance after shaking (Meglumine 50 mM): A | Appearance after standing (Meglumine 50 mM): A | Defoaming time (Meglumine 50 mM): B (In 60 minutes) | Foaming property (Meglumine 50 mM): C | General judgment (Meglumine 50 mM): B | Appearance after shaking (Meglumine 75 mM): A | Appearance after standing (Meglumine 75 mM): A | Defoaming time (Meglumine 75 mM): B (In 60 minutes) | Foaming property (Meglumine 75 mM): B | General judgment (Meglumine 75 mM): A | Appearance after shaking (Meglumine 100 mM): A | Appearance after standing (Meglumine 100 mM): A | Defoaming time (Meglumine 100 mM): A (In 20 minutes) | Foaming property (Meglumine 100 mM): C | General judgment (Meglumine 100 mM): A | Appearance after shaking (Methane sulfonic acid 15 mM): D | Appearance after standing (Methane sulfonic acid 15 mM): D | Foaming property (Methane sulfonic acid 15 mM): B | General judgment (Methane sulfonic acid 15 mM): D | Appearance after shaking (Propylene glycol 1.00%): B | Appearance after standing (Propylene glycol 1.00%): A | Foaming property (Propylene glycol 1.00%): B | General judgment (Propylene glycol 1.00%): B+ | Appearance after shaking (Propylene glycol 5.00%): B | Appearance after standing (Propylene glycol 5.00%): D | Foaming property (Propylene glycol 5.00%): D | General judgment (Propylene glycol 5.00%): D | Appearance after shaking (Propylene glycol 10.00%): C | Appearance after standing (Propylene glycol 10.00%): D | Foaming property (Propylene glycol 10.00%): D | General judgment (Propylene glycol 10.00%): D | Appearance after shaking (Propylene glycol […]): C | Appearance after standing (Propylene glycol […]): D | Foaming property (Propylene glycol […]): D | General judgment (Propylene glycol […]): D | Appearance after shaking (Sodium L-glutamate 30 mM): B+ | Appearance after standing (Sodium L-glutamate 30 mM): B+ | Foaming property (Sodium L-glutamate 30 mM): B+ | General judgment (Sodium L-glutamate 30 mM): B+ | Appearance after shaking (Sodium L-glutamate 60 mM): A | Appearance after standing (Sodium L-glutamate 60 mM): A | Defoaming time (Sodium L-glutamate 60 mM): A (In 20 minutes) | Foaming property (Sodium L-glutamate 60 mM): B+ | General judgment (Sodium L-glutamate 60 mM): A | Appearance after shaking (Sodium chloride 25 mM): D | Appearance after standing (Sodium chloride 25 mM): D | Foaming property (Sodium chloride 25 mM): B | General judgment (Sodium chloride 25 mM): D | Appearance after shaking (Sodium chloride 50 mM): B | Appearance after standing (Sodium chloride 50 mM): B | Foaming property (Sodium chloride 50 mM): A | General judgment (Sodium chloride 50 mM): C | Appearance after shaking (Sodium chloride 75 mM): A | Appearance after standing (Sodium chloride 75 mM): A | Defoaming time (Sodium chloride 75 mM): A (In 20 minutes) | Foaming property (Sodium chloride 75 mM): B+ | General judgment (Sodium chloride 75 mM): A | Appearance after shaking (Sodium chloride 100 mM): A | Appearance after standing (Sodium chloride 100 mM): A | Defoaming time (Sodium chloride 100 mM): A (In 20 minutes) | Foaming property (Sodium chloride 100 mM): B | General judgment (Sodium chloride 100 mM): A
